Measurements: patent publication US8710179B2, “Compositions and methods for concentrating and depleting microorganisms” (priority 2006, dated 2014)
Values after ≈ are worked out from the molar mass of the structure shown. Like-named read-outs stand apart in the source and are kept apart here.

How the values were obtained:
[1] = Hydrophobicity estimation by RP-HPLC (percent acetonitrile at elution); format: physicochemical; conditions: RP-HPLC C18, linear acetonitrile gradient 1% per minute
From the text: In order to estimate the hydrophobicity of each polymer, the polymer was eluted with a linear gradient of acetonitrile (1% per minute) on an HPLC reversed-phase C18 column, and the percent of acetonitrile at which the polymer was eluted was used for hydrophobicity estimation (see, “ACN (%)” in Table 3 below).
“ACN (%)” represents the percent of acetonitrile in the RP-HPLC gradient mobile phase at which the polymer was eluted and which corresponds to the estimated hydrophobicity of the polymer (column 4 in Table 3);

[2] = system: B. cereus; format: cell-based
From the text: (§1) “MIC (μM)” represents the minimal inhibitory concentration of each tested polymer in μM for each bacterial strain, measured as described previously (columns 5-8 in Table 3); For bacterial strains, “Ec” represents E. coli; “Pa” represents P. aeruginosa; “Sa” represents S. aureus; and “Bc” represents B. cereus; and […]

[3] = system: E. coli; format: cell-based
From the text: as §1

[4] = system: P. aeruginosa; format: cell-based
From the text: as §1

[5] = system: S. aureus; format: cell-based
From the text: as §1

[6] = system: E. coli; experiment: Bacteria capture assay with polymer-loaded resin beads (incl. kinetic studies); format: binding, Escherichia coli ATCC 35218; conditions: for Bound E. coli (CFU/mg resin): polymer-loaded resin beads, 30 minutes incubation
Experimental: Various concentrations of bacteria in 500 μl luria bertani broth (LB) were shaken at room temperature in the presence of deprotected polymer-loaded beads (1.8 mg of polymer per sample) or protected polymer-loaded and unloaded beads as a control experiment in a centrifuge tube equipped with a 10 μm cutoff membrane (Whatman polypropylene mesh VectaSpin Micro). After 30 minutes incubation the samples were centrifuged at 21,000×g for 5 minutes to separate beads from unbound bacteria and further analyzed as follows.
(§2) To assess bacterial binding to the beads, filtrates were subjected to serial 10 fold dilutions and plated on LB agar plates. Cell counts were determined using the drop plate method (three 20 μl drops onto LB agar plates) after overnight incubation at 37° C. For the viability study, resins were spread directly on LB agar plates and incubated similarly. For kinetic studies, resins were incubated with 1×10^6 CFU/ml E. coli in LB for up to 15 minutes and filtered after the indicated time periods then plated for CFU count.
“Bound E. coli (CFU/mg resin)” represents the capturing capacity of bacterial binding per one milligram of polymer-loaded resin beads as assessed after 30 minutes incubation using the capture assay as presented herein (column 9 in Table 3).

[7] = system: GFP-expressing E. coli; experiment: Viability of polymer-captured bacteria, propidium iodide staining
Experimental: To establish the viability of polymer-captured bacteria, samples of polymer-captured GFP-expressing bacteria were incubated for 15 minutes at room temperature in a solution of 1 ml propidium iodide (Invitrogen, USA) in PBS (final concentration 0.06 mM), and thereafter centrifuged/washed in PBS and examined under a confocal fluorescent microscope using emission suitable for GFP and propidium iodide (excitation at 490 nm emission at 620 nm).

[8] = system: E. coli; format: cell-based; remark: listed apart in the source
Experimental: as §2
The non-cytotoxicity of the beads-bound polymers was assessed by the viability of the polymer-captured bacteria. E. coli was incubated with beads-bound polymers (10^6 CFU/ml/mg resin), and after filtration, samples of the resins and the filtrates were plated on LB-agar individually.
FIG. 6 presents a series of images of LB-agar plates, showing the viability of the captured E. coli cells (1×10^6 CFU/ml) which were incubated for 30 minutes with deprotected (FIGS. 6A1 and 6A2) and Boc-protected (FIGS. 6B1 and 6B2) K(NC12K)7NH2-loaded resin beads, wherein FIGS. 6A1 and 6B1 show the plates of the plated filtrates and FIGS. 6A2 and 6B2 show the plates of filtered and plated beads.

[9] = Regeneration and stability of polymer-loaded beads (HPLC and MS after cleavage); format: physicochemical
From the text: To verify their stability and the regeneration thereof, polymer-loaded resin beads were submitted to multiple cycles of bacterial binding followed by their release with 70% ethanol. To assess the potential polymer degradation, the polymer was cleaved from the resin, analyzed by HPLC and identified by mass spectrometry.
Polymer-loaded beads were exposed to 10 consecutive cycles of bacterial binding and release with 70% ethanol, and were submitted to a cleavage reaction. The cleaved polymers were analyzed by HPLC and mass spectrometry before and after the repetitive cycles. The HPLC chromatograms were obtained over […] elution using a 1% gradient of acetonitrile in water (30% to 60%), and the fraction containing the polymer was subjected to mass spectrometry analysis.

[10] = system: bacteria; experiment: Antibacterial activity (MIC) of the resin-free polymer, strain not given; format: cell-based
From the text: as §1

[11] = system: E. coli; experiment: Bacterial binding assay by real-time SPR on polymer-coated chip; conditions: 10^6 CFU/ml E. coli
Experimental: Purified resin-free polymers were immobilized onto the CM5 sensor chip (BIAcore, Uppsala, Sweden) via the terminal carboxyl group using 2-(2-pyridinyldithio)ethaneamine (PDEA). Carboxyl activation was achieved as follows. Morpholino-ethanesulfonic acid (MES buffer, 0.1 ml of 0.1 M) at pH 5.0 was used to solubilize 0.1 mg of the polymer. The solution was mixed with PDEA to final concentration of 22 mM and ethyl-3-(3-dimethylaminopropyl)-carbodiimide (EDC) to final concentration of 13 mM, incubated for 1 hour on ice and then placed in a dialysis tube (floating in buffer) to remove the excess reagents. In parallel, a 1:1 solution (20 μl) of EDC (0.4 M 1-ethyl-3-(3-dimethylaminopropyl)-carbodiimide in water):NHS (0.1 M N-hydroxysuccinimide in water) was injected at a flow rate of 10 μl/minute, to activate the chip surface. […]
Bacterial binding to the polymer was determined by surface plasmon resonance (SPR) using the optical biosensor system BIAcore 2000 (BIAcore, Uppsala, Sweden). […]
For real-time monitoring of bacterial capture the present inventors have developed a model system based on the SPR technology that normally enables binding measurements between immobilized receptor molecules and soluble ligands. […] In the example presented herein, the polymer was immobilized onto the sensor chip and bacteria were injected over the polymer-bound surface and their binding monitored in real-time. […]

| Compound | ACN (%) at which the polymer was eluted (estimated hydrophobicity) [1] [%] | MIC (μM) Bc ([2]; resin-free polymer) [µM] | MIC (μM) Ec ([3]; resin-free polymer) [µM] | MIC (μM) Pa ([4]; resin-free polymer) [µM] | MIC (μM) Sa ([5]; resin-free polymer) [µM] | Bound E. coli (CFU/mg resin) [6] | MIC (μM) Bc [2] [µM] | MIC (μM) Ec [3] [µM] | MIC (μM) Pa [4] [µM] | MIC (μM) Sa [5] [µM] | other results |
| --- | --- | --- | --- | --- | --- | --- | --- | --- | --- | --- | --- |
| H-KKKKKKKK-NH2 [Polymer K8NH2, reference compound] | 20 | >50 | >50 | >50 | >50 | 9 ± 1 × 10^2 CFU/mg resin | – | – | – | – | – |
| dermaseptin [reference compound] | – | – | – | – | – | – | – | – | – | – | fraction of dead bacteria upon exposure ([7]; polymer-bound bacteria exposed 15 minutes at 12.5 μM): significantly increased |
| NCCCC[C@H](NC(=O)CCCCCCCCCCCNC(=O)[C@H](CCCCN)NC(=O)CCCCCCCCCCCNC(=O)[C@H](CCCCN)NC(=O)CCCCCCCCCCCNC(=O)[C@H](CCCCN)NC(=O)CCCCCCCCCCCNC(=O)[C@H](CCCCN)NC(=O)CCCCCCCCCCCNC(=O)[C@H](CCCCN)NC(=O)CCCCCCCCCCCNC(=O)[C@H](CCCCN)NC(=O)CCCCCCCCCCCNC(=O)[C@@H](N)CCCCN)C(N)=O [K(NC12K)7NH2] | – | – | – | – | – | – | >50 | >50 | >50 | >50 | fraction of dead bacteria ([7]; polymer-captured bacteria, did not exceed control suspension): up to 12%; viability of polymer-captured bacteria ([7]; propidium iodide exclusion): most polymer-captured bacteria were alive; viable bacteria on the filtered and plated beads [8]: remained alive; stability of the polymer after repeated use [9]: remained unchanged; MIC [10]: more than 50 μM |
| NCCCC[C@H](NC(=O)CCCCCCCNC(=O)[C@H](CCCCN)NC(=O)CCCCCCCNC(=O)[C@H](CCCCN)NC(=O)CCCCCCCNC(=O)[C@H](CCCCN)NC(=O)CCCCCCCNC(=O)[C@H](CCCCN)NC(=O)CCCCCCCNC(=O)[C@H](CCCCN)NC(=O)CCCCCCCNC(=O)[C@H](CCCCN)NC(=O)CCCCCCCNC(=O)[C@@H](N)CCCCN)C(N)=O [K(NC8K)7NH2] | 34 | – | – | – | – | 2 ± 0.6 × 10^2 CFU/mg resin | >50 | >50 | >50 | >50 | – |
| CCCCCCCCCCCC(=O)NC(CCCCN)C(=O)NCCCCCCCC(=O)NC(CCCCN)C(=O)NCCCCCCCC(=O)NC(CCCCN)C(=O)NCCCCCCCC(=O)NC(CCCCN)C(=O)NCCCCCCCC(=O)NC(CCCCN)C(=O)NCCCCCCCC(=O)NC(CCCCN)C(=O)NCCCCCCCC(=O)NC(CCCCN)C(=O)NCCCCCCCC(=O)NC(CCCCN)C(N)=O (stereo not shown) [C12K(NC8K)7NH2] | 47.5 | 12.5 (≈ 27.7 µg/mL) | 3.1 (≈ 6.86 µg/mL) | 6.2 (≈ 13.7 µg/mL) | 50 (≈ 111 µg/mL) | 1 ± 0.5 × 10^3 CFU/mg resin | – | – | – | – | amount of captured bacteria ([6]; polymer-loaded resin beads exposed to E. coli): approximately 10^3 CFUs |
| H-KKKKKKKKKKKKKKK-NH2 [Polymer K15NH2, reference compound] | 22 | >50 | >50 | >50 | >50 | 1 ± 0.6 × 10^3 CFU/mg resin | – | – | – | – | fold less efficient than the K(NC12K)7NH2-coated chip [11]: more than 100 fold; stability of the polymer after repeated use ([9]; 10 cycles of bacterial binding and release with 70% ethanol): deteriorated over time |
